Experimental data as given in ChEMBL document CHEMBL1782045, “Discovery, synthesis, and investigation of the antitumor activity of novel piperazinylpyrimidine derivatives” (Eur J Med Chem, 2011).

What was measured:
[1] = tested on: MDA-MB-435; experiment: Cytotoxicity against human MDA-MB-435 cells after 48 hrs by sulforhodamine B assay; type: cell-based; conditions: mda-mb-435, 48 h
[2] = tested on: SK-MEL-28; experiment: Cytotoxicity against human SK-MEL-28 cells after 48 hrs by sulforhodamine B assay; type: cell-based; conditions: sk-mel-28, 48 h
[3] = tested on: SK-MEL-5; experiment: Cytotoxicity against human SK-MEL-5 cells after 48 hrs by sulforhodamine B assay; type: cell-based; conditions: sk-mel-5, 48 h
[4] = tested on: OVCAR-5; experiment: Cytotoxicity against human OVCAR5 cells after 48 hrs by sulforhodamine B assay; type: cell-based; conditions: ovcar-5, 48 h
[5] = tested on: ACHN; experiment: Cytotoxicity against human ACHN cells after 48 hrs by sulforhodamine B assay; type: cell-based
[6] = tested on: CAKI-1; experiment: Cytotoxicity against human Caki1 cells after 48 hrs by sulforhodamine B assay; type: cell-based; conditions: caki-1, 48 h
[7] = tested on: SN12C; experiment: Cytotoxicity against human SN12C cells after 48 hrs by sulforhodamine B assay; type: cell-based
[8] = tested on: NCI-H226; experiment: Growth inhibition of human NCI-H226 cells after 48 hrs by sulforhodamine B assay; type: functional; conditions: NCI-H226, 48 h
[9] = tested on: DU-145; experiment: Cytotoxicity against human DU145 cells after 48 hrs by sulforhodamine B assay; type: cell-based; conditions: du-145, 48 h
[10] = tested on: MDA-MB-231; experiment: Cytotoxicity against human MDA-MB-231 cells after 48 hrs by sulforhodamine B assay; type: cell-based; conditions: mda-mb-231, 48 h
[11] = tested on: Hs-578T; experiment: Cytotoxicity against human Hs578T cells after 48 hrs by sulforhodamine B assay; type: cell-based
[12] = tested on: Serine/threonine-protein kinase B-raf (Homo sapiens), P15056 [V600E]; experiment: Binding affinity to human BRAF V600E mutant at 10 uM incubated for 1 hr by kinase binding assay relative to untreated control
Sequence of Serine/threonine-protein kinase B-raf (Homo sapiens), P15056 [V600E] (P15056 whole entry V600E): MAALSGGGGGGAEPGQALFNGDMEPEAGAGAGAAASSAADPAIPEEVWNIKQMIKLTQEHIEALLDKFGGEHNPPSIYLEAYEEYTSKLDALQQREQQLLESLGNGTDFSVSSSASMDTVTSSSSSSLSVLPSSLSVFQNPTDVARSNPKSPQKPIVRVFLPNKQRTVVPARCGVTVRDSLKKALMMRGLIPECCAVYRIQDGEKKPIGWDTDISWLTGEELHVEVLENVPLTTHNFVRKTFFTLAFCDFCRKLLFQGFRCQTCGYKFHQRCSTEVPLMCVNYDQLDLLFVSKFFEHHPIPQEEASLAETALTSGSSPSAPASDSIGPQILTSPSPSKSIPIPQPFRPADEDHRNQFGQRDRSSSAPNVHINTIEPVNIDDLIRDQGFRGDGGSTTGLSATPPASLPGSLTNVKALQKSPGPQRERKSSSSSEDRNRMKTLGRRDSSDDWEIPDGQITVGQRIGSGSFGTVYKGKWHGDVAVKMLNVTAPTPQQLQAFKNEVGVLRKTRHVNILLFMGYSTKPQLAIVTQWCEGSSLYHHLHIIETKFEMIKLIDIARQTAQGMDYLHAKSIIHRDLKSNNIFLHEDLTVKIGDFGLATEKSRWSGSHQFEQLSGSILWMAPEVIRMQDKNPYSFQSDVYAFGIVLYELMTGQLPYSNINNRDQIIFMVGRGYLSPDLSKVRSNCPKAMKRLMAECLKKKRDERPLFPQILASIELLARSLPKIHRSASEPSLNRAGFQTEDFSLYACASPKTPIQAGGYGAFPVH

[13] = biological target: Macrophage colony-stimulating factor 1 receptor (Homo sapiens) (UniProt P07333); experiment: Binding affinity to human CSF1R at 10 uM incubated for 1 hr by kinase binding assay relative to untreated control
Sequence of Macrophage colony-stimulating factor 1 receptor (Homo sapiens) (P07333 whole entry, canonical isoform): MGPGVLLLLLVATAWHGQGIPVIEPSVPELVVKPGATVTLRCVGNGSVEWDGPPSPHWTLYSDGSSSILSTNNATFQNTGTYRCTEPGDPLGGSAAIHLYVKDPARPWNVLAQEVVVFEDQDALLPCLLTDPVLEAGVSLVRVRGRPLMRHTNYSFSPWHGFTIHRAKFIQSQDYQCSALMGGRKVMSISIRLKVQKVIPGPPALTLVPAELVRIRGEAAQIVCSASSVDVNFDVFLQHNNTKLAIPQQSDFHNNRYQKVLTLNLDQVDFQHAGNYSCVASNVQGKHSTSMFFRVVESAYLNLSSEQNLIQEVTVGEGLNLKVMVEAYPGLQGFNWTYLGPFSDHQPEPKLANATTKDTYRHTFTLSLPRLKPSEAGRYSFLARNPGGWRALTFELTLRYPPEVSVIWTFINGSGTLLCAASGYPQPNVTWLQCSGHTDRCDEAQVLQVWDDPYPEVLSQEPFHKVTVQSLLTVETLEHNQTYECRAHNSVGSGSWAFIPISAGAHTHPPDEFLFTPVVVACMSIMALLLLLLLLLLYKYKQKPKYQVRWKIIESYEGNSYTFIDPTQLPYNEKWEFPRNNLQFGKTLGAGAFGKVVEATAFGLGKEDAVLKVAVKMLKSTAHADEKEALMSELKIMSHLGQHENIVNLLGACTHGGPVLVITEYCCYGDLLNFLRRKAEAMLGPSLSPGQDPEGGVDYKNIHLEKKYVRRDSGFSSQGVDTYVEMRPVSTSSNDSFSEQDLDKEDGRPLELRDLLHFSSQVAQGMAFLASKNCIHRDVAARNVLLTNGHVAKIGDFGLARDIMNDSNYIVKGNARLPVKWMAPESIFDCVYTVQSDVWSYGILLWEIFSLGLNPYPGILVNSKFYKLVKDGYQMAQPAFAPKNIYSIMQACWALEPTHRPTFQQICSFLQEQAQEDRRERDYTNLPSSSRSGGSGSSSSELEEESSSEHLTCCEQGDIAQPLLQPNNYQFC

[14] = biological target: Casein kinase I isoform epsilon (Homo sapiens) (UniProt P49674); experiment: Binding affinity to human CSNK1E at 10 uM incubated for 1 hr by kinase binding assay relative to untreated control
Sequence of Casein kinase I isoform epsilon (Homo sapiens) (P49674 whole entry, looked up, canonical isoform): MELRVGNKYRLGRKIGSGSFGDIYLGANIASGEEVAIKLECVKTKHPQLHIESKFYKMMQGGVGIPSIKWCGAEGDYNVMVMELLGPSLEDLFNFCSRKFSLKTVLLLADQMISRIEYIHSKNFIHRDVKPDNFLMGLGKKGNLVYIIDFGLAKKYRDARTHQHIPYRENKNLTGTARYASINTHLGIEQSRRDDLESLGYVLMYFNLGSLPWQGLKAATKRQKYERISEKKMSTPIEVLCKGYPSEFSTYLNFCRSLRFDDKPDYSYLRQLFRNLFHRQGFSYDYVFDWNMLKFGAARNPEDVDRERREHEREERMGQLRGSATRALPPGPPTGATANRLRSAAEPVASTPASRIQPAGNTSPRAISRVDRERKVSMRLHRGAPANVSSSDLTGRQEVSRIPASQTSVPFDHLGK

[15] = biological target: Casein kinase I isoform gamma-2 (Homo sapiens) (UniProt P78368); experiment: Binding affinity to human CSNK1G2 at 10 uM incubated for 1 hr by kinase binding assay relative to untreated control
Sequence of Casein kinase I isoform gamma-2 (Homo sapiens) (P78368 whole entry, looked up, canonical isoform): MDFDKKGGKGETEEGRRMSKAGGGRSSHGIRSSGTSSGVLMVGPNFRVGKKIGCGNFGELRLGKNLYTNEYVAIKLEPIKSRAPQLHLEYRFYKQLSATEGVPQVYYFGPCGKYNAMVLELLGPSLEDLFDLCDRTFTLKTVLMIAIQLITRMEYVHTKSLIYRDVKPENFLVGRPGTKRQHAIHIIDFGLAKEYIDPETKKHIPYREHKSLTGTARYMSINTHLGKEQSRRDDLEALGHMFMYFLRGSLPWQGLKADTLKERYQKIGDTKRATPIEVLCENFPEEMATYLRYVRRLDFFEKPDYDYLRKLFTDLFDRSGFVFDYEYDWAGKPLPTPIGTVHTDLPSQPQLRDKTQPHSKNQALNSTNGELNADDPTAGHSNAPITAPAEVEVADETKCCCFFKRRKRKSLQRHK

[16] = tested on: HCT-116; experiment: Growth inhibition of human HCT116 cells after 48 hrs by sulforhodamine B assay; type: functional; conditions: HCT-116, 48 h
[17] = tested on: KM12; experiment: Growth inhibition of human KM12 cells after 48 hrs by sulforhodamine B assay; type: functional; conditions: KM12, 48 h
[18] = tested on: SNB-19; experiment: Growth inhibition of human SNB19 cells after 48 hrs by sulforhodamine B assay; type: functional; conditions: SNB-19, 48 h
[19] = tested on: UACC-62; experiment: Growth inhibition of human UACC62 cells after 48 hrs by sulforhodamine B assay; type: functional; conditions: UACC-62, 48 h
[20] = tested on: 786-0; experiment: Growth inhibition of human 786-0 cells after 48 hrs by sulforhodamine B assay; type: functional; conditions: 786-0, 48 h
[21] = biological target: T1, Mitogen-activated protein kinase 12 (Homo sapiens) (UniProt P53778); experiment: Binding affinity to human p38-gamma at 10 uM incubated for 1 hr by kinase binding assay relative to untreated control
T1 sequence (whole entry): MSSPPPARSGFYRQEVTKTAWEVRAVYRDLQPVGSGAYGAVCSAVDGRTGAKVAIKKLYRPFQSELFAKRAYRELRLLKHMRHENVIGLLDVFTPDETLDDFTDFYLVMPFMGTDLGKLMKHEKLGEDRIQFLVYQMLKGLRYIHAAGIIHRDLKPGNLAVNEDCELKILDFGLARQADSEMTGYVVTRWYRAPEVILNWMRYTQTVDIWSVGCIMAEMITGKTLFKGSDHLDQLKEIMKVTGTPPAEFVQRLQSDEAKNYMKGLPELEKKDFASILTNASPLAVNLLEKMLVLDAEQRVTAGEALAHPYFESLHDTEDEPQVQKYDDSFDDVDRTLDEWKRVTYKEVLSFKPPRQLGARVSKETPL

[22] = biological target: T2, Receptor-interacting serine/threonine-protein kinase 1 (Homo sapiens) (UniProt Q13546); experiment: Binding affinity to human RIPK1 at 10 uM incubated for 1 hr by kinase binding assay relative to untreated control
T2 sequence (whole entry): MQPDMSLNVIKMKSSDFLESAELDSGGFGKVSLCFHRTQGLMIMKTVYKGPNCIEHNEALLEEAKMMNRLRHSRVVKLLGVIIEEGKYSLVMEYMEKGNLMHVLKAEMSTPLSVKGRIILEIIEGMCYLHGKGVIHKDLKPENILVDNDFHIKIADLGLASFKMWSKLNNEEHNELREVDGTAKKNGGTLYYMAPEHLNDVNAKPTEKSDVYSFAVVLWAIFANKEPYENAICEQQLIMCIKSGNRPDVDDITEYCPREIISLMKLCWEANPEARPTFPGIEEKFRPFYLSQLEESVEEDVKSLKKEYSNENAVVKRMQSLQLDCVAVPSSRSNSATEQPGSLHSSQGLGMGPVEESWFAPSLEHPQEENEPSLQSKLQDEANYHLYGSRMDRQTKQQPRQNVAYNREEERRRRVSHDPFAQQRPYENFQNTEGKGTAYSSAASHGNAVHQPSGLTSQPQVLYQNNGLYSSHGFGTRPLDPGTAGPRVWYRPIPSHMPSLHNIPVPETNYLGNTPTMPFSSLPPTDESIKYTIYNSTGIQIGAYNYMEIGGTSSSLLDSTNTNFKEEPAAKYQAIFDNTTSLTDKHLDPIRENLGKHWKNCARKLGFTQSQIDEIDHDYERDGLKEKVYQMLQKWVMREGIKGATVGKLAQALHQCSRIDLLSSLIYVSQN

[23] = tested on: ACHN; experiment: Growth inhibition of human ACHN cells after 48 hrs by sulforhodamine B assay; type: functional
[24] = tested on: T47D; experiment: Growth inhibition of human T47D cells after 48 hrs by sulforhodamine B assay; type: functional
[25] = tested on: A549; experiment: Cytotoxicity against human A549 cells after 48 hrs by sulforhodamine B assay; type: cell-based; conditions: a549, 48 h
[26] = tested on: Mast/stem cell growth factor receptor Kit (Homo sapiens), P10721 [D816H]; experiment: Inhibition of human KIT D816H using gamma-33P-ATP as substrate assessed as enzyme functional activity at 1 uM by scintillation counting relative to untreated control; parameters: scale not given: the % may be the effect or the level left
Sequence of Mast/stem cell growth factor receptor Kit (Homo sapiens), P10721 [D816H] (P10721 whole entry D816H): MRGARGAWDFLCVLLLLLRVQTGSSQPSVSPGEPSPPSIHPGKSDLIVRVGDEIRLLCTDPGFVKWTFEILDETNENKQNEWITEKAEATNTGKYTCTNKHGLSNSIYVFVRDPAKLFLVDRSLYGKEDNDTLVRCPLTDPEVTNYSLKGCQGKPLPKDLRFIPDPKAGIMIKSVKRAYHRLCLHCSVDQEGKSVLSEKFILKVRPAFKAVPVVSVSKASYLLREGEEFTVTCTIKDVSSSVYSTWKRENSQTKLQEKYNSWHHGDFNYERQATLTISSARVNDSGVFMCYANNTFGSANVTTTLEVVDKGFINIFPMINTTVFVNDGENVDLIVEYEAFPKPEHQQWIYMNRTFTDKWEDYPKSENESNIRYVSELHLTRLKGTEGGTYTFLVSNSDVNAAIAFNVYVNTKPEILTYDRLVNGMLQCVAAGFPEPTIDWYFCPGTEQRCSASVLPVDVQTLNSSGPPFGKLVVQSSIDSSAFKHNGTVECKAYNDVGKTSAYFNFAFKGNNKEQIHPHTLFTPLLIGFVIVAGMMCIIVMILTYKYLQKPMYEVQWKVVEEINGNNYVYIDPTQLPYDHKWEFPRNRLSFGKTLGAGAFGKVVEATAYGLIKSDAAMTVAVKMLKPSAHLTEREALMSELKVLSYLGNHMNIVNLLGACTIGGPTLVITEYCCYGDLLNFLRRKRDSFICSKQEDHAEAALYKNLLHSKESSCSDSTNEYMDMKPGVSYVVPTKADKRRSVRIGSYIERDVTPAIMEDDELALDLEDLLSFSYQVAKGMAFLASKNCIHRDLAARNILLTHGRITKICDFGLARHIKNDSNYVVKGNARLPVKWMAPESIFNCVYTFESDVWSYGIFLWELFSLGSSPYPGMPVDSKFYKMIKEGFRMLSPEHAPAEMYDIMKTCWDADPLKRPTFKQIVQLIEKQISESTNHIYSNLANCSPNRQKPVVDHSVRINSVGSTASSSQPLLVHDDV

[27] = tested on: HCC 2998; experiment: Cytotoxicity against human HCC2998 cells after 48 hrs by sulforhodamine B assay; type: cell-based; conditions: hcc 2998, 48 h
[28] = tested on: HCT-15; experiment: Cytotoxicity against human HCT15 cells after 48 hrs by sulforhodamine B assay; type: cell-based; conditions: hct-15, 48 h
[29] = biological target: RAC-beta serine/threonine-protein kinase (Homo sapiens) (UniProt P31751); experiment: Inhibition of human PKBbeta using gamma-33P-ATP as substrate assessed as enzyme functional activity at 1 uM by scintillation counting relative to untreated control; parameters: scale not given: the % may be the effect or the level left
Sequence of RAC-beta serine/threonine-protein kinase (Homo sapiens) (P31751 whole entry): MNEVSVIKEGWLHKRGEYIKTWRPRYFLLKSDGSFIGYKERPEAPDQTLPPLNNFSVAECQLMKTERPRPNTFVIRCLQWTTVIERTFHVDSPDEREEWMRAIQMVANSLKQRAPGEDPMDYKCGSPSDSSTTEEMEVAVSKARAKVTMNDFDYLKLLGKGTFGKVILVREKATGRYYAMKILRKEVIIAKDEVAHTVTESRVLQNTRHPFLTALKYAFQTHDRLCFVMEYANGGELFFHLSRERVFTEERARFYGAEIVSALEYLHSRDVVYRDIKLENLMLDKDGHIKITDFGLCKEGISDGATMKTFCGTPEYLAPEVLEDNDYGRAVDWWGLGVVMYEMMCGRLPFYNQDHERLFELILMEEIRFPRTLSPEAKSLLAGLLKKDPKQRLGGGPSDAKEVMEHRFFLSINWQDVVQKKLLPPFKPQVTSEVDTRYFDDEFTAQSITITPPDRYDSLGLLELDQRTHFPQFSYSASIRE

[30] = tested on: LOX IMVI; experiment: Cytotoxicity against human LOXIMVI cells after 48 hrs by sulforhodamine B assay; type: cell-based

Compound	LC50 [1]	LC50 [2]	LC50 [3]	LC50 [4]	LC50 [5]	LC50 [6]	LC50 [7]	TGI [8]	LC50 [9]	LC50 [10]	LC50 [11]	Activity [12]	Activity [13]	Activity [14]	Activity [15]	TGI [16]	TGI [17]	TGI [18]	TGI [19]	TGI [20]	also measured
c1ccc(Cc2cnc(N3CCN(c4ncnc5ccccc45)CC3)nc2)cc1	91.4 µM	> 100 µM	37.7 µM	> 100 µM	> 100 µM	> 100 µM	54.8 µM	48.4 µM	79.8 µM	92.8 µM	> 100 µM	> 50%	31%	45%	> 50%	13.2 µM	25.1 µM	> 100 µM	25.9 µM	36.7 µM	Activity [21]: > 50%; Activity [22]: 3.5%; TGI [23]: 42.4 µM; TGI [24]: 45.5 µM; LC50 [25]: > 100 µM; Activity [26]: 30%; LC50 [27]: > 100 µM; LC50 [28]: > 100 µM; Activity [29]: 89%; LC50 [30]: 44.3 µM
CCc1cnc(N2CCN(C(=O)c3ccc(CNc4ncnc5ccccc45)cc3)CC2)nc1	> 100 µM	> 100 µM	20.8 µM	> 100 µM	> 100 µM	> 100 µM	> 100 µM	> 100 µM	> 100 µM	> 100 µM	> 100 µM	13%	> 50%	29%	18%	25 µM	24.3 µM	> 100 µM	80.9 µM	54.8 µM	Activity [21]: > 50%; Activity [22]: > 50%; TGI [23]: 82.5 µM; TGI [24]: > 100 µM; LC50 [25]: > 100 µM; Activity [26]: 100%; LC50 [27]: > 100 µM; LC50 [28]: > 100 µM; Activity [29]: 82%; LC50 [30]: 97.3 µM
O=C(c1cccc(Nc2ncnc3ccccc23)c1)N1CCN(c2ncc(Cc3ccccc3)cn2)CC1	4.57 µM	5.25 µM	3.47 µM	> 100 µM	> 100 µM	4.47 µM	> 100 µM	2.09 µM	> 100 µM	> 100 µM	> 100 µM	> 50%	> 50%	23%	43%	3.55 µM	2.4 µM	8.91 µM	1.86 µM	6.61 µM	Activity [21]: 25%; Activity [22]: 19%; TGI [23]: 4.57 µM; TGI [24]: 7.59 µM; LC50 [25]: 8.13 µM; Activity [26]: 100%; LC50 [27]: 8.91 µM; LC50 [28]: 9.33 µM; Activity [29]: 83%; LC50 [30]: 5.13 µM
